In patent publication US11084842B2 (SUNSHINE LAKE PHARMA CO., LTD., priority 2018, dated 2021):

Target: T1, human SGLT1 (Homo sapiens, UniProt P13866)
T1 construct: expressed in transfected cells; host or cells: CHO cells (FIP-in CHO; mock-transfected cells as control)
T1 sequence (P13866 1-664): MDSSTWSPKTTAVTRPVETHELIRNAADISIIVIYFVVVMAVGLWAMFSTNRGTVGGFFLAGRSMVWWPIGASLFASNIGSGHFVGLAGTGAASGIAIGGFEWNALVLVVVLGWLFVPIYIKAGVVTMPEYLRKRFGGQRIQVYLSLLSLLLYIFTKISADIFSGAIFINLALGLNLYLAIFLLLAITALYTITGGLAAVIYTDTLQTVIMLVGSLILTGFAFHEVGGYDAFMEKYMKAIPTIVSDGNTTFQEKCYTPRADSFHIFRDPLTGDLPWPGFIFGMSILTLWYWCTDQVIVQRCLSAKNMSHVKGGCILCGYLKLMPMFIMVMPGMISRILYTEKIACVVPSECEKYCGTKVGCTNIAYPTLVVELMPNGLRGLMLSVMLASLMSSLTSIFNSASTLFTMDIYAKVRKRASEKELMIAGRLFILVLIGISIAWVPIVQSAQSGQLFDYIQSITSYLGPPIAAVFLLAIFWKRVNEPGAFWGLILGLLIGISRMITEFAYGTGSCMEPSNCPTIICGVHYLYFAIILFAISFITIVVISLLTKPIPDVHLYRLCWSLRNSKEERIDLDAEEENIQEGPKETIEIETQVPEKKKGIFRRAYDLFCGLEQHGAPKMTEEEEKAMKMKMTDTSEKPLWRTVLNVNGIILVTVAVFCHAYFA
Test: Test of inhibitory activity on SGLT1 ([14C]-AMG uptake in CHO cells expressing human SGLT1)
Assay type: cell-based
Conditions: CHO cells expressing human SGLT1, 0.5 μM [14C]-AMG, 37° C., 1 hour
Experimental: The following methods can be used to determine the inhibitory activity of the compound of the invention on SGLT-1.
Mock-transfected FIP-in CHO cells (3×10^4 cells) and expressing human SGLT1 CHO cells were seeded into 96-well plates respectively. The cells were incubated for 12 hours. Each well of the 96-well plate was washed with 150 μL of sodium-free buffer once. To each well was added 50 μL of sodium-containing buffer containing test compounds having different concentrations and 0.5 μM [^14C]-AMG. The incubation mixture was incubated at 37° C. for 1 hour. To each well was added 150 μL of precooled sodium-free buffer to terminate the reaction. The cell pellet was washed with sodiumfree buffer three times and the residual liquid in well was removed. To each well was added 20 μL of precooled 100 mM NaOH. The 96-well plate was vibrated at 900 rpm for 5 minutes. Scintillation fluid (80 μL) was added to each well which was then vibrated at 600 rpm for 5 minutes. The amount of ^14C-AMG was quantitatively detected using liquid scintillation.

Compound	IC50 [pM]
Cc1ccc([C@]23OC[C@](C(C)(C)O)(O2)[C@@H](O)[C@H](O)[C@H]3O)cc1Cc1ccc(CCCC(=O)NC2(C(=O)NCCN(C)C)CCC2)cc1 [Example 11]	230
Cc1ccc([C@]23OC[C@](C)(O2)[C@@H](O)[C@H](O)[C@H]3O)cc1Cc1ccc(CCCC(=O)NC(C)(C)C(=O)NCCN(C)C)cc1 [Example 13]	2900
Cc1ccc([C@]23OC[C@](C)(O2)[C@@H](O)[C@H](O)[C@H]3O)cc1Cc1ccc(CCCC(=O)NC2(C(=O)NCCN(C)C)CCCCC2)cc1 [Example 18]	430
Cc1ccc([C@]23OC[C@](C)(O2)[C@@H](O)[C@H](O)[C@H]3O)cc1Cc1ccc(OCCCC(=O)NC2(C(=O)NCCN(C)C)CCCCC2)cc1 [Example 21, N-(2-dimethylaminoethyl)-1-[4-[4-[[2-methyl-5-[(1S,2S,3S,4R,5S)-2,3,4-trihydroxy-1-methyl-6,8-dioxabicyclo[3.2.1]octane-5-yl]phenyl]methyl]phenoxy]butanamido]cyclohexylcarboxamide]	600

The remaining lines, values ahead:

IC50 [pM]	Compound
1610	Cc1ccc([C@]23OC[C@](C(C)(C)O)(O2)[C@@H](O)[C@H](O)[C@H]3O)cc1Cc1ccc(CCCC(=O)N[C@H](C(=O)NCCN(C)C)C2CC2)cc1 [Example 10, N-[(1S)-1-cyclopropyl-2-(2-dimethylaminoethylamino)-2-oxo-ethyl]-4-[4-[[2-methyl-5-[(1S,2S,3S,4R,5S)-2,3,4-trihydroxy-1-(1-hydroxy-1-methyl-ethyl)-6,8-dioxabicyclo[3.2.1]octane-5-yl]phenyl]methyl]phenyl]butanamide]
1510	CCC(CC)(NC(=O)CCCc1ccc(Cc2cc([C@]34OC[C@](C(C)(C)O)(O3)[C@@H](O)[C@H](O)[C@H]4O)ccc2C)cc1)C(=O)NCCN(C)C [Example 12, N-(2-dimethylaminoethyl)-2-ethyl-2-[4-[4-[[2-methyl-5-[(1S,2S,3S,4R,5S)-2,3,4-trihydroxy-1-(1-hydroxy-1-methyl-ethyl)-6,8-dioxabicyclo[3.2.1]octane-5-yl]phenyl]methyl]phenyl]butanamido]butanamide]
570	CC[C@@]12CO[C@@](c3ccc(C)c(Cc4ccc(CCCC(=O)NC(C)(C)C(=O)NCCN(C)C)cc4)c3)(O1)[C@H](O)[C@@H](O)[C@@H]2O [Example 14, N-(2-dimethylaminoethyl)-2-[4-[4-[[5-[(1S,2S,3S,4R,5S)-1-ethyl-2,3,4-trihydroxy-6,8-dioxabicyclo[3.2.1]octane-5-yl]-2-methyl-phenyl]methyl]phenyl]butanamido]-2-methyl-propionamide]
550	Cc1ccc([C@]23OC[C@](C)(O2)[C@@H](O)[C@H](O)[C@H]3O)cc1Cc1ccc(OCCCC(=O)NC2(C(=O)NCCN(C)C)CCC2)cc1 [Example 20, N-(2-dimethylaminoethyl)-1-[4-[4-[[2-methyl-5-[(1S,2S,3S,4R,5S)-2,3,4-trihydroxy-1-methyl-6,8-dioxabicyclo[3.2.1]octane-5-yl]phenyl]methyl]phenoxy]butanamido]cyclobutyl carboxamide]
470	Cc1ccc([C@]23OC[C@](C(C)(C)O)(O2)[C@@H](O)[C@H](O)[C@H]3O)cc1Cc1ccc(CCCC(=O)NC2(C(=O)NCCN(C)C)CCCCC2)cc1 [Example 16, N-(2-dimethylaminoethyl)-1-[4-[4-[[2-methyl-5-[(1S,2S,3S,4R,5S)-2,3,4-trihydroxy-1-(1-hydroxy-1-methyl-ethyl)-6,8-dioxabicyclo[3.2.1]octane-5-yl]phenyl]methyl]phenyl]butylamide]cyclohexyl carboxamide]
400	Cc1ccc([C@]23OC[C@](C)(O2)[C@@H](O)[C@H](O)[C@H]3O)cc1Cc1ccc(CCCC(=O)NC2(C(=O)NCCN(C)C)CCC2)cc1 [Example 17, N-(2-dimethylaminoethyl)-1-[4-[4-[[2-methyl-5-[(1S,2S,3S,4R,5S)-2,3,4-trihydroxy-1-methyl-6,8-dioxabicyclo[3.2.1]octane-5-yl]phenyl]methyl]phenyl]butanamido]cyclobutyl carboxamide]
240	Cc1ccc([C@]23OC[C@](C(C)(C)O)(O2)[C@@H](O)[C@H](O)[C@H]3O)cc1Cc1ccc(CCCC(=O)NC2(C(=O)NCCN(C)C)CCCC2)cc1 [Example 8, N-(2-dimethylaminoethyl)-1-[4-[4-[[2-methyl-5-[(1S,2S,3S,4R,5S)-2,3,4-trihydroxy-1-(1-hydroxy-1-methyl-ethyl)-6,8-dioxabicyclo[3.2.1]octane-5-yl]phenyl]methyl]phenyl]butylamide]cyclopentyl formamide]

Test system: blood glucose of SD rats
Test: Oral glucose tolerance test in SD rats (Test Method 2)
Assay type: in vivo
Conditions: dosage 0.1 mg/kg by gavage, glucose 4.0 g/kg, decline rate of AUCGlu 0-60min
Experimental: The following methods were used to evaluate the effects of the compound of the invention on improving oral glucose tolerance and glycosuria excretion.
The weights and the fasting blood glucose levels of male SD rats were measured after an overnight 15-hours fast. The rats were grouped by their weights and fasting plasma glucose levels. […] After 30 minutes, the blood glucose level (i.e., zero point blood glucose) of each group was measured, and then each group was immediately administered glucose (4.0 g/kg) once by gavage. The blood was drawn from the caudal vein of the […] at 15, 30 and 60 minutes after glucose administration and the blood glucose levels were measured continuously on blood-glucose meter. The decline rate of the area under the blood sugar curve within 60 minutes (AUCGlu 0-60min) after sugar loading was calculated.

Compound	hypoglycemic rate (%)
Cc1ccc([C@]23OC[C@](C(C)(C)O)(O2)[C@@H](O)[C@H](O)[C@H]3O)cc1Cc1ccc(CCCC(=O)NC2(C(=O)NCCN(C)C)CCCCC2)cc1 [Example 16, N-(2-dimethylaminoethyl)-1-[4-[4-[[2-methyl-5-[(1S,2S,3S,4R,5S)-2,3,4-trihydroxy-1-(1-hydroxy-1-methyl-ethyl)-6,8-dioxabicyclo[3.2.1]octane-5-yl]phenyl]methyl]phenyl]butylamide]cyclohexyl carboxamide]	30.93

Same assay, conditions: dosage 1 mg/kg by gavage, glucose 4.0 g/kg, decline rate of AUCGlu 0-60min

Compound	hypoglycemic rate (%)
Cc1ccc([C@]23OC[C@](C(C)(C)O)(O2)[C@@H](O)[C@H](O)[C@H]3O)cc1Cc1ccc(CCCC(=O)NC(C)(C)C(=O)NCCN(C)C)cc1 [Example 2]	31.64
Cc1ccc([C@]23OC[C@](C(C)(C)O)(O2)[C@@H](O)[C@H](O)[C@H]3O)cc1Cc1ccc(CCCC(=O)N[C@@H](C)C(=O)NCCN(C)C)cc1 [Example 6, N-[(1S)-2-(2-dimethylaminoethylamino)-1-methyl-2-oxo-ethyl]-4-[4-[[2-methyl-5-[(1S,2S,3S,4R,5S)-2,3,4-trihydroxy-1-(1-hydroxy-1-methyl-ethyl)-6,8-dioxabicyclo[3.2.1]octane-5-yl]phenyl]methyl]phenyl]butanamide]	33.19
